This is an account of results in publication PMC5030144 (Nature chemical biology, 2016).

What is called Ki is the dissociation constant of the complex between target and ligand, obtained from inhibition or displacement. Lower therefore signals a stronger hold on the target.

Test [1] concerns the target T1, RMS3 (Pisum sativum, UniProt A0A109QYD3).
T1 sequence (A0A109QYD3 1-267): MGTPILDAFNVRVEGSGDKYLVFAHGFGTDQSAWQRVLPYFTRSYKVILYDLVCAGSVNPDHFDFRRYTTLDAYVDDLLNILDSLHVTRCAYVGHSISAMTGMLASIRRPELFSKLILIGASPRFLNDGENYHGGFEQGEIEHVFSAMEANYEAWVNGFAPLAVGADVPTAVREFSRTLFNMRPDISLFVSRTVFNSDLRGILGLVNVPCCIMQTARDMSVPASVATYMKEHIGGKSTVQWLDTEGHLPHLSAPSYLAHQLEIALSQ
Kind of test: Differential scanning fluorimetry. To be noted: DSF. It is filed as binding. On the technique in general: In DSF a fluorescence change marks the thermal transition of the protein.

For test [2], the target named is T1, RMS3. The test can be described thus: Intrinsic tryptophan fluorescence, apparent dissociation coefficient. Type of test: binding. The conditions noted are these: apparent Kd from intrinsic fluorescence, mean ± SE of two replicates.
Test [3] deals with T1, RMS3. Kind of test: Competition test with. Type of test: biochemical.

The structures appear in SMILES notation. Values joined by “and” are separate entries in the source; they are usually repeats but may differ in a detail not shown here. Equal entries are not always repeated.

Regarding `Cc1cc(=O)oc2c(F)c(O)c(F)cc12` [DiFMU, 6,8-difluoro-7-hydroxy-4-methylcoumarin], in test [1], the “shift in RMS3 melting temperature (destabilization)” value (“shift in RMS3 melting temperature” below) is reported as “small stabilization”. Moreover, the Kd in test [2] (Kd) was 20 µM and 19.9 µM.

On to `CC1=C(C)C(OC=C2C(=O)OC3c4ccccc4CC23)OC1=O` (racemic) [(±)-3’-Me-GR24], for which the Kd in test [2] is 30.9 ± 5.2 µM.

On to `O=C1C=CC(OC=C2C(=O)OC3c4ccccc4CC23)O1` (racemic) [(±)-4’-desmethyl-2’-epi-GR24], for which the “shift in RMS3 melting temperature” value in test [1] is recorded as “no shift”. Also, the Kd in test [2] turned out to be 296 ± 27.9 µM.

Regarding `O=C1OC2c3ccccc3CC2/C1=C\O` (racemic) [(±)-ABC], the “shift in RMS3 melting temperature” value in test [1] is on record as “no shift”. For the same compound, in test [3] (RMS3), the “mode of inhibition of (±)-GC242 hydrolysis” value is recorded as “competitive inhibitor”. Besides, the Ki in test [3] (RMS3, competition test with (±)-GC242, mean ± SE of three replicates) worked out at 28.8 ± 17.6 µM. The Kd in test [2] stood at 271 ± 29.8 µM.
